Earlier results, collected in patent US20140155265A1, “HERBICIDAL COMPOSITIN COMPRISING PINOXADEN AND FLUROXYPYR AND METHODS OF USE THEREOF” (priority 2011, published 2014).

Conditions: Pesticide Manual 15th edition

Nc1c(Cl)c(F)nc(OCC(=O)O)c1Cl [Fluoroxypyr (free carboxylic acid), Fluoroxypyr]
pKa: 2.94
